Legend:
[1] = system: TOV-21G cells; assay: Multipolar spindle formation in TOV-21G cells (DAPI, NuMA, α-tubulin staining); format: cell-based; settings: 24 hours, 2 μM Compound B combined with 0.5 nM epothilone B vs single agents
Protocol: The cells were then stained with DAPI (to label DNA) and antibodies for α-tubulin and the spindle pole marker NuMA.
Cells in mitosis were then manually counted and scored for the presence of normal bipolar spindles or abnormal multipolar spindles. The frequency of cells with multipolar spindles was determined and scored in at least 100 cells from each treatment condition.

[2] = system: TOV-21G cells; assay: Cell proliferation of TOV-21G cells, crystal violet staining; format: cell-based; settings: seven days, Compound B (2 μM) and/or epothilone B (4 nM)
Protocol: The cells were then stained with crystal violet (hexamethyl pararosaniline chloride) dye. The crystal violet dye was extracted in 10% v/v acetic acid, and absorbance was measured in triplicate at a wavelength of 540 nm on a spectrophotometer (FIG. 2B).

Compound: O=C(CCCCCCNC(=O)c1cnc(N(c2ccccc2)c2ccccc2Cl)nc1)NO [Compound B, 2-((2-chlorophenyl)(phenyl)amino)-N-(7-(hydroxyamino)-7-oxoheptyl)pyrimidine-5-carboxamide]
- frequency of cells with multipolar mitotic spindles [1]: enhanced the multipolar spindle formation induced by epothilone
- inhibition of tumor cell proliferation (crystal violet absorbance at 540 nm) [2]: inhibition of tumor cell proliferation by Epotholine B was enhanced
